Several values for one entry are separate records, joined by “and”; a condition that tells them apart may be missing. Identical values can stand only once.

In turn, `CC(C)CCOC(=O)/C=C/c1ccc(/C=C/C(=O)OCCC(C)C)c([N+](=O)[O-])c1` had a melting point of 94 °C.
Compound `O=C(O)Cc1ccccc1` [phenylacetic_acid] came in with a melting point of 79 °C.
`CCCCCCCCCCc1ccccc1` [Decylbenzene]: the melting point is -14 °C.
As for `C/C=C/C(C)C` [4-methyl-trans-2-pentene], the melting point is -141 °C.
For the compound `Oc1ccccc1O` [Pyrocatechol], the melting point is 105 °C.
The compound `COCCOCCOC` [diethylene glycol dimethyl ether] came in with a melting point of -64 °C.
In the case of `OB(O)c1ccc(Cl)cc1Cl` [2,4-dichlorobenzeneboronic acid], the melting point was found to be 244 °C.
Regarding `NC1=NN(c2ccccc2)CC1` [3-amino-4,5-dihydro-1-phenyl-1h-pyrazole], the melting point amounted to 169 °C.
Compound `Cc1ccc(Cl)c(N)c1` [2-chloro-5-methylaniline] showed a melting point of 32 °C.
On to `CC(C)(C)C=O` [trimethylacetaldehyde], for which the melting point is 6 °C.
`Cc1ccc(-c2ccc(C)cc2)cc1` [4,4'-dimethylbiphenyl] had a melting point of 121 °C.
In turn, `COc1cccc(OC)c1P(c1c(OC)cccc1OC)c1c(OC)cccc1OC` [tris(2,6-dimethoxyphenyl)phosphine] returned a melting point of 146 °C.
The figure for `COc1ccc2c(c1)[nH]c1c(C)nccc12` [harmine] is 264 °C.
The figure for `CC(=O)c1ccc2ccccc2c1` [2-acetylnaphthalene] is 54 °C; for `Oc1ccccc1Cl` [2-chlorophenol] it is 8 °C; for `CCOC(=O)c1c[nH]nc1N` [ethyl 3-amino-1h-pyrazole-4-carboxylate] it is 106 °C.
The compound `CC(C)COC(=O)C(C)C` [isobutyl_isobutyrate] came in with a melting point of -80 °C.
For `O=C(O)c1cc(C(=O)O)c(C(=O)O)cc1C(=O)O` [pyromellitic acid], the melting point is 283 °C.
The compound `O=C(O)CCc1c(F)c(F)nc(F)c1F` [2,3,5,6-tetrafluoropyridine-4-propionic acid] returned a melting point of 152 °C.
Regarding `ClCC1CO1` (configuration not stated) [epichlorohydrin], the melting point was -57.1 °C.
`CCOC(=O)c1ccc(N)cc1` [benzocaine] showed a melting point of 92 °C.
On to `O=C(O)C(S)C(S)C(=O)O` (configuration not stated) [2,3-Disulfanylsuccinic acid], for which the melting point worked out at 197 °C.
In turn, `CCCCNC(=O)NS(=O)(=O)c1ccc(C)cc1` [tolbutamide] gave a melting point of 129 °C.
Under `Oc1ccc2ccccc2c1` [2-naphthol] stands 122 °C; under `CC(C)(C)OC(=O)N[C@@H](Cc1ccccc1)C(=O)O` [N-boc-L-phenylalanine], 87 °C; under `Cc1c(CSC2OCC(O)C(O)C2O)c(C)c(CSC2OCC(O)C(O)C2O)c(C)c1CSC1OCC(O)C(O)C1O` (configuration not stated), 209 °C.
With `COCC(=O)O` [methoxyacetic acid], the melting point is 8 °C.
`O=C(O)CC(O)C(=O)O` (racemic) [dl-malic acid] gave a melting point of 132 °C.
As to `COc1ccc(C=NO)c(OC)c1` [2,4-dimethoxybenzaldoxime], the melting point turned out to be 107 °C.
`CCOC(=O)c1ccccc1N` [ethyl_2-aminobenzoate] came in with a melting point of 14 °C.
Compound `COC(=O)c1sccc1N` [methyl 3-aminothiophene-2-carboxylate] gave a melting point of 65 °C.
The figure for `CCCCC` [Pentane] is -130 °C; for `Cc1cccc(C)c1C` [1,2,3-Trimethylbenzene] it is -25 °C; for `CCCCOc1ccccc1` [N-butyl phenyl ether] it is -19 °C.
Under `ClC(c1ccccc1)c1ccccc1` [benzhydryl chloride] stands 19 °C; under `CCCOC(=O)c1ccc(O)cc1` [propyl paraben], 97 °C and 96.5 °C (2×) and 96 °C; under `Nc1ncnc2c1ncn2[C@@H]1O[C@H](CO)[C@@H](O)[C@H]1O` [adenosine], 234 °C.
For the compound `CC(C)(C)N` [tert-butylamine], the melting point was -67 °C.
For the compound `O=[N+]([O-])c1ccc(CO)cc1` [4-nitrobenzyl alcohol], the melting point came to 94 °C.
Consider `O=C(O)c1ccc(I)cc1` [4-iodobenzoic acid], for which the melting point came to 270 °C.
Under `COC(=O)C(O)c1ccccc1[N+](=O)[O-]` (configuration not stated) [methyl hydroxy(2-nitrophenyl)acetate] stands 62 °C; under `CN1C(=O)c2ccccc2C1C=C(c1ccccc1)c1ccccc1` (configuration not stated) [3-(2,2-Diphenylethenyl)-2-methylisoindolin-1-one], 147 °C.
`OC(c1ccc(Cl)cc1)(c1ccc(Cl)cc1)c1ccc(Cl)cc1` [4,4',4''-trichlorotrityl alcohol] yielded a melting point of 96 °C.
Compound `C/C=C\CCCCC` [cis-2-octene] had a melting point of -100 °C.
The compound `CC(=O)Nc1ccc(OC(=O)c2ccccc2O)cc1` [acetaminosalol] returned a melting point of 187 °C.
In the case of `CCOC(=O)c1cc(C)n(C2=CC(C)N=N2)n1` (configuration not stated) [ethyl 5,5'-dimethyl-1'H-1,3'-bipyrazole-3-carboxylate], the melting point was found to be 121 °C.
Compound `CC(C)CC(=O)O` [3-methylbutanoic_acid] gave a melting point of -30 °C.
`Cc1cccc(C)c1NC(=O)CN1CCN(CCCC(c2ccc(F)cc2)c2ccc(F)cc2)CC1` [lidoflazine]: the melting point came out at 159 °C.
`OCCSSCCO` [2-Hydroxyethyl Disulfide] showed a melting point of 26 °C.
For `CC(C)(C)c1cnc(C(=O)Nc2cccc(Br)c2)cn1` [N-(3-bromophenyl)-5-tert-butylpyrazine-2-carboxamide], the melting point stood at 114 °C.
Take `O=C(Nc1ccccc1)OC1CCCCCC1OC(=O)Nc1ccccc1` (configuration not stated) [cycloheptane-1,2-diyl bis(phenylcarbamate)]: the melting point was 174 °C.
`CN(C)c1ccc(/N=N/c2ccc(N=C=S)cc2)cc1` [4-dimethylaminoazobenzene-4'-isothiocyanate] registered a melting point of 170 °C.
For the compound `CC1(C)OC(=O)C(=Cc2ccc(-c3ccccc3)o2)C(=O)O1`, the melting point came out at 143 °C.
The figure for `COC1=CC(=O)C[C@@H](C)[C@]12Oc1c(Cl)c(OC)cc(OC)c1C2=O` [griseofulvin] is 219 °C; for `NC12CC3CC(CC(C3)C1)C2` [Amantadine] it is 180 °C; for `CCCOC(=O)c1ccc(O)cc1` [propylparaben] it is 96.5 °C.
In the case of `CC[C@H]1OC(=O)[C@H](C)[C@@H](O[C@H]2C[C@@](C)(OC)[C@@H](O)[C@H](C)O2)[C@H](C)[C@@H](O[C@@H]2O[C@H](C)C[C@H](N(C)C)[C@H]2O)[C@](C)(O)C[C@@H](C)CN(C)[C@H](C)[C@@H](O)[C@]1(C)O`, the melting point was 114 °C.
`CCOC(=O)c1cccc(B(O)O)c1` [3-(ethoxycarbonyl)benzeneboronic acid] yielded a melting point of 137 °C.
The compound `NNC(=O)c1ccco1` [2-furohydrazide] registered a melting point of 80 °C.
`c1ccc2c(c1)ccc1cc3c(ccc4ccccc43)cc12` [Benzo[k]tetraphene]: the melting point stood at 266 °C.
The figure for `N#CCc1ccccc1Br` [o-bromophenylacetonitrile] is -1 °C; for `O=C5\C=C4/C(C3CCC2(C(CCC2OC(=O)c1ccccc1)C3CC4)C)(C)CC5` (configuration not stated) [Testosterone benzoate] it is 195 °C; for `CC(=O)Oc1ccccc1C(=O)O` [aspirin] it is 138 °C.
The figure for `CCCCCCCC(C)=O` [2-nonanone] is -15 °C; for `O=C1C(c2ccccc2)=C(c2ccccc2)C(c2ccccc2)=C1c1ccccc1` [tetraphenylcyclopentadienone] it is 218 °C.
With `C=C(CC1c2ccccc2C(=O)N1Cc1ccccc1)c1ccccc1` (configuration not stated) [2-Benzyl-3-(2-phenyl-2-propenyl)isoindolin-1-one], the melting point was 70.5 °C.
`Cl\C1=C(/Cl)C2(Cl)C3C4CC(C3C1(Cl)C2(Cl)Cl)C5OC45` (configuration not stated) [endrin]: the melting point stood at 210 °C.
Under `CCOC1OC(C(N)=O)=CCC1Br` (configuration not stated) [3-bromo-2-ethoxy-3,4-dihydro-2H-pyran-6-carboxamidato] stands 142 °C.
The compound `CCCCCCCCSCCCCCCCC` [di-n-octyl sulfide] had a melting point of 1 °C.
Compound `Cc1ccc(C)c(/C=C/C(=O)O)c1` [2,5-dimethylcinnamic acid] showed a melting point of 130 °C.
In the case of `ClCCCCCl` [1,4-dichlorobutane], the melting point is -38 °C.
As to `O=Cc1ccc(O)c(Cl)c1` [3-chloro-4-hydroxybenzaldehyde], the melting point was found to be 130 °C.
In the case of `CC(=O)OC1CCC2C3CCC4=CC(=O)CCC4(C)C3CCC12C` (configuration not stated) [3-oxoandrost-4-en-17-yl acetate], the melting point worked out at 140 °C.
Under `Cc1ccc(N)c(C)c1` [2,4-Dimethylaniline] stands 16 °C.
`Cc1n[nH]cc1-c1ccccc1` [3-methyl-4-phenyl-1h-pyrazole] gave a melting point of 142 °C.
`Brc1ccccc1I` [o-bromoiodobenzene]: the melting point is 10 °C.
The figure for `On1nnc2ccccc21` [1H-Benzotriazol-1-ol] is 159 °C; for `C=C(Br)CC1(C(C)CC)C(=O)NC(=O)NC1=O` (configuration not stated) [butallylonal] it is 132 °C.
The figure for `O=C(O)C(Cl)Cl` [Dichloroacetic acid] is 9.7 °C; for `OC/C=C/c1ccccc1` [cinnamyl alcohol] it is 34 °C.
Compound `CCCCCCC(C)C` [2-Methyloctane] yielded a melting point of -80 °C.
In turn, `C#CCCCC` [1-hexyne] showed a melting point of -132 °C.
Turning to `CCOC(=O)C(C#N)=C(SC)N(C)C` [ethyl 2-cyano-3-(dimethylamino)-3-(methylthio)acrylate], the melting point worked out at 92 °C.
Under `O=C1c2ccccc2-c2ccccc21` [9-fluorenone] stands 84 °C; under `CC(C)S[C@@H]1O[C@H](CO)[C@H](O)[C@H](O)[C@H]1O` [isopropyl-beta-d-thiogalactoside], 112 °C; under `Cc1cccc(Nc2ccccc2C(=O)O)c1C` [Mefenamic acid], 230 °C.
Consider `Nc1ccc(N)cc1` [p-phenylenediamine], for which the melting point is 140 °C.
